Where no end group is shown, it is not given here.
Legend:
[1] = system: iPS cells (clone name: 201B2 or 201B7); experiment: AFP ELISA of iPS cell culture supernatant; type: cell-based, human; settings: peptide concentration in medium 6 μM; as culture time increased; FIG. 4
Description: (§1) The stem cell differentiation-inducing activity of the differentiation-inducing synthetic peptide (Sample 1) obtained in Example 1 was evaluated by quantifying changes over time in the expressed amounts (typically extracellular secretion) of AFP and ALB, which are proteins known as markers of differentiation into endodermal cells. It is known that AFP is expressed in cells that have differentiated into liver precursor cells among the endodermal cells, while ALB is expressed in cells that have differentiated sufficiently to function effectively as hepatocytes (that is, hepatocytes or hepatocyte-like cells). […]
200 μL of a substrate solution obtained by mixing 1 volume each of the accessory coloring reagent (A) and coloring reagent (B) was added per well, and left standing for 30 minutes in the dark. […] Absorbance A450 at 450 nm and absorbance A550 at 550 nm were then measured with a spectrophotometer in the reaction liquid in the wells.
(§2) Absorbance values A(450-550) were calculated by subtracting the absorbance A550 from the absorbance A450 obtained by the previous measurement (that is, absorbance A(450-550)=[…]) for each of the samples from the AFP evaluation test group and ALB evaluation test group. […]

[2] = system: iPS cells (clone name: 201B2 or 201B7); experiment: ALB ELISA of iPS cell culture supernatant; type: cell-based, human; settings: peptide concentration in medium 6 μM; as culture time increased; FIG. 4
Description: as §1
50 μL of the accessory Chromogen Substrate Solution (coloring reagent) was then added per well, and left standing for 15 minutes in the dark. […] Absorbance A450 at 450 nm and absorbance A550 at 550 nm were then measured with a spectrophotometer in the reaction liquid in the wells.
as §2

## LLLLLLVGLTAPAGKKRTLRKNDRKKR-CONH2 (LLLLLLVGLTAPAGKKRTLRKNDRKKR-NH2) [Sample 1]
[1]
  AFP level of the culture supernatant in comparison with peptide-free group with the same culture time: increased dramatically
[2]
  ALB level of the culture supernatant in comparison with peptide-free group with the same culture time: increased dramatically

Reference: US10100284B2, “Method for inducing differentiation of pluripotent stem cells into endodermal cells” (TOAGOSEI CO., LTD., priority 2013, dated 2018)
